Source: BindingDB's records for doi:10.1016/j.bmcl.2003.09.076 (Eli Lilly, 2003)
Values belong to the compound of their own block, whether it stands above or below them.

Key:
[1] = Cytotoxic activity in human liver Huh-7 cells
[2] = Binding affinity towards Protease using PNA assay […]
[3] = Inhibitory activity against Protease using replicon assay […] at 50 uM concentration

Structure (SMILES): CCCC(NC(=O)[C@@H]1[C@H]2CCC[C@H]2CN1C(=O)[C@@H](NC(=O)[C@H](O)C(C)C)C(C)C)C(=O)C(=O)NC1CC1 (stereo partly drawn) [(1S,3aR,6aS)-2-[(S)-2-((R)-2-Hydroxy-3-methyl-butyrylamino)-3-methyl-butyryl]-octahydro-cyclopenta[c]pyrrole-1-carboxylic acid (1-cyclopropylaminooxalyl-butyl)-amide]
IC50 [1]: > 100 µM
Ki [2]: 14500 nM

Structure (SMILES): CCCC(NC(=O)[C@@H]1[C@H]2CCC(F)(F)[C@H]2CN1C(=O)[C@@H](NC(=O)[C@H](O)C(C)C)C(C)C)C(=O)C(=O)NC1CC1 (stereo partly drawn) [(1S,3aR,6aS)-4,4-Difluoro-2-[(S)-2-((R)-2-hydroxy-3-methyl-butyrylamino)-3-methyl-butyryl]-octahydro-cyclopenta[c]pyrrole-1-carboxylic acid (1-cyclopropylaminooxalyl-butyl)-amide]
Ki [2]: 16500 nM

Structure (SMILES): CCCC(NC(=O)[C@@H]1[C@H]2CCC(F)(F)[C@H]2CN1C(=O)[C@@H](NC(=O)OC(C)C)C(C)(C)C)C(=O)C(=O)N[C@@H](C)c1ccccc1 (stereo partly drawn) [((S)-1-{(1S,3aR,6aS)-4,4-Difluoro-1-[1-((S)-1-phenyl-ethylaminooxalyl)-butylcarbamoyl]-hexahydro-cyclopenta[c]pyrrole-2-carbonyl}-2,2-dimethyl-propyl)-carbamic acid isopropyl ester]
IC50 [1]: > 100 µM
Ki [2]: 2100 nM

Structure (SMILES): CCCC(NC(=O)[C@@H]1[C@H]2CCC(F)(F)[C@H]2CN1C(=O)[C@@H](NC(=O)OC(C)C)C(C)C)C(=O)C(=O)N[C@@H](C)c1ccccc1 (stereo partly drawn) [((S)-1-{(1S,3aR,6aS)-4,4-Difluoro-1-[1-((S)-1-phenyl-ethylaminooxalyl)-butylcarbamoyl]-hexahydro-cyclopenta[c]pyrrole-2-carbonyl}-2-methyl-propyl)-carbamic acid isopropyl ester]
IC50 [1]: > 100 µM
Ki [2]: 6700 nM

Stronger by Ki [2], values ahead:

Ki [2]: 1910 nM
Structure (SMILES): CCCC(NC(=O)[C@@H]1[C@H]2CCC[C@H]2CN1C(=O)[C@@H](NC(=O)OC(C)C)C(C)C)C(=O)C(=O)N[C@@H](C)c1ccccc1 (stereo partly drawn) [((S)-2-Methyl-1-{(1S,3aR,6aS)-1-[1-((S)-1-phenyl-ethylaminooxalyl)-butylcarbamoyl]-hexahydro-cyclopenta[c]pyrrole-2-carbonyl}-propyl)-carbamic acid isopropyl ester]
IC50 [1]: > 100 µM

IC50 [3]: > 100 µM
Ki [2]: 1800 nM
Structure (SMILES): CCCC(NC(=O)[C@@H]1[C@H]2CCC[C@H]2CN1C(=O)[C@@H](NC(=O)[C@H](O)C(C)C)C(C)C)C(=O)C(=O)Nc1ccccc1 (stereo partly drawn) [(1S,3aR,6aS)-2-[(S)-2-((R)-2-Hydroxy-3-methyl-butyrylamino)-3-methyl-butyryl]-octahydro-cyclopenta[c]pyrrole-1-carboxylic acid (1-phenylaminooxalyl-butyl)-amide]

Ki [2]: 820 nM
Structure (SMILES): CCCC(NC(=O)[C@@H]1[C@H]2CCC[C@H]2CN1C(=O)[C@@H](NC(=O)OC(C)C)C(C)(C)C)C(=O)C(=O)Nc1ccccc1 (stereo partly drawn) [{(S)-2,2-Dimethyl-1-[(1S,3aR,6aS)-1-(1-phenylaminooxalyl-butylcarbamoyl)-hexahydro-cyclopenta[c]pyrrole-2-carbonyl]-propyl}-carbamic acid isopropyl ester]
